Measured values published in patent publication US11420966B2 (ACLARIS THERAPEUTICS, INC., priority 2019, dated 2022).

What was measured:
GI Exposure PK in Mice = format: in vivo; conditions: mouse, male BalbC mice, oral dose of 5 mg/kg
Experimental: The test compound was wetted with ˜0.025% of Tween-20 and triturated in a mortar and pestle, then slowly 0.5% of methyl cellulose was added to make up the final volume to 7.25 mL. The BalbC test animals were subjected to anesthesia induced with a mixture of 5% isoflurane and 0.8-1.5 L/min 02 gas flow. The formulated test compound was then dosed via oral gavage. At various time points (0.5, 1, 2, 4, 6 and 8 h) blood samples (˜100 μL) were collected from portal vein (pre-hepatic) followed by cardiac puncture (circulating) into tubes containing 2% w/v aqueous K2 EDTA solution as per time points. Post blood sampling, the gastro intestine (GI) tissues were collected from the mice at the same time points. The GI tissue was dissected into different parts as duodenum, jejunum, ileum and colon. The separated tissues were washed by flushing with PBS via oral gavage needle to remove GI content. Post collection all the tissues were blotted, weighed and homogenized with PBS buffer (pH 7.4). The blood samples were immediately placed on ice and centrifuged within 30 min at 4° C. for 5 min at 8,000 rpm to obtain plasma. Plasma was transferred by pipettes to pre-labelled centrifuge tubes and immediately transferred to −80° C. until bioanalysis. Tissue samples were placed in pre-labelled container and all samples were kept in −80° C. until homogenized. The homogenate was stored immediately in −80° C. until bioanalysis was conducted. Study samples were thawed to room temperature and 50 μL of sample was aliquoted into pre-labeled vials. To these was added 400 μL of 100% acetonitrile containing an IS (100 ng/mL; warfarin, tolbutamide and loperamide). The vials were mixed well, vortexed for 5 min, followed by centrifugation for 5 min at 14000 rpm at 4° C. The supernatant was separated and same was injected on LC-MS/MS. Plasma and GI tissue levels of test compound were determined by LC-MS analysis using a standard curve in the text matrix. Individual concentration-time data were analyzed using Phoenix WinNonlin (Version 8.1) by the non-compartmental analysis (NCA) method.

Tyk-2 = Tyk-2 (Homo sapiens (Human), UniProt P29597); assay: Tyk-2 enzyme activity assay (Thermo Fisher SelectScreen, Z-lyte); format: biochemical; conditions: read-out: Tyk-2 Inhibition IC50
Procedure, shortened: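 Z-lyte FRET assay: 3.75–15 ng TYK2 with […] Tyr 03 peptide in HEPES pH 7.0, MgCl2, EGTA, BRIJ-35; 1 h reaction, then development reagent. 11-point dose-response, 2% DMSO; IC50 via 4-parameter fit of emission ratio, background without enzyme.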

JAK2 = JAK2 (Homo sapiens (Human), UniProt O60674); assay: JAK2 enzyme activity assay (Thermo Fisher SelectScreen, Z-lyte); format: biochemical; conditions: read-out: JAK2 Inhibition IC50
Procedure, shortened: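 Z-lyte FRET kinase assay: 0.12-0.5 ng JAK2 with […] Tyr 06 peptide in 50 mM HEPES pH 7.5, 0.01% BRIJ-35, 10 mM MgCl2, 1 mM EGTA, 1 h reaction before development reagent. 11-point dose-response from […] to 0.34 nM, 2% DMSO; IC50 from 4-parameter fit of emission ratio.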

[1] = portal vein plasma (pre-hepatic), Portal plasma

JAK2, sequence (O60674 whole entry): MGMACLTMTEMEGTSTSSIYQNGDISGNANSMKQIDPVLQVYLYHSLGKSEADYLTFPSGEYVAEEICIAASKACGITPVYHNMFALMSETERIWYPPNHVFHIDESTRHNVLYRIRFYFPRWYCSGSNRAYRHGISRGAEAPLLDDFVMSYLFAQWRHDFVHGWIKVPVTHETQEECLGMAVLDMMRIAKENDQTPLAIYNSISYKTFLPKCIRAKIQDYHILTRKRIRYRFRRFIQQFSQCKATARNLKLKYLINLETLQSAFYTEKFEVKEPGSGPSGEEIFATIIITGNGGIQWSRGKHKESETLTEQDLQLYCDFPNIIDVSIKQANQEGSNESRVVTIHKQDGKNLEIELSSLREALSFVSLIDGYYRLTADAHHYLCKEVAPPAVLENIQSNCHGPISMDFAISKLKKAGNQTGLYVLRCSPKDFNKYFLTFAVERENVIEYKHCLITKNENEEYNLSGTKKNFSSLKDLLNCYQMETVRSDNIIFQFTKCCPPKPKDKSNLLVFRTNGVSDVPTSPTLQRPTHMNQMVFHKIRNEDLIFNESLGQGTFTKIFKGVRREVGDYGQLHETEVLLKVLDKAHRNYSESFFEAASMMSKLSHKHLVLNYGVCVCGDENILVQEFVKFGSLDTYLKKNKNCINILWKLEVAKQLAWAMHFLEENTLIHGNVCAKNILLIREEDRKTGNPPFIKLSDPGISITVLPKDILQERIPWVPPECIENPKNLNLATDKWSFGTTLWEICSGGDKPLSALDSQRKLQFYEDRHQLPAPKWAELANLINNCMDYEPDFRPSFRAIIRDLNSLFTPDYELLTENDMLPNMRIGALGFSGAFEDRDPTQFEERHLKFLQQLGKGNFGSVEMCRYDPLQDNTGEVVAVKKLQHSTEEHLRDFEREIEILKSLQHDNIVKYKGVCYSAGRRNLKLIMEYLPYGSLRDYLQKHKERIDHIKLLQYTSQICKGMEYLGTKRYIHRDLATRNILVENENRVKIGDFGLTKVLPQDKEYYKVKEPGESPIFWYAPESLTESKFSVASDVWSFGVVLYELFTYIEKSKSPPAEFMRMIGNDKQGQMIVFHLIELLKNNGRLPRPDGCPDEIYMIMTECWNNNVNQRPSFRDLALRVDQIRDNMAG
Tyk-2, sequence (P29597 whole entry): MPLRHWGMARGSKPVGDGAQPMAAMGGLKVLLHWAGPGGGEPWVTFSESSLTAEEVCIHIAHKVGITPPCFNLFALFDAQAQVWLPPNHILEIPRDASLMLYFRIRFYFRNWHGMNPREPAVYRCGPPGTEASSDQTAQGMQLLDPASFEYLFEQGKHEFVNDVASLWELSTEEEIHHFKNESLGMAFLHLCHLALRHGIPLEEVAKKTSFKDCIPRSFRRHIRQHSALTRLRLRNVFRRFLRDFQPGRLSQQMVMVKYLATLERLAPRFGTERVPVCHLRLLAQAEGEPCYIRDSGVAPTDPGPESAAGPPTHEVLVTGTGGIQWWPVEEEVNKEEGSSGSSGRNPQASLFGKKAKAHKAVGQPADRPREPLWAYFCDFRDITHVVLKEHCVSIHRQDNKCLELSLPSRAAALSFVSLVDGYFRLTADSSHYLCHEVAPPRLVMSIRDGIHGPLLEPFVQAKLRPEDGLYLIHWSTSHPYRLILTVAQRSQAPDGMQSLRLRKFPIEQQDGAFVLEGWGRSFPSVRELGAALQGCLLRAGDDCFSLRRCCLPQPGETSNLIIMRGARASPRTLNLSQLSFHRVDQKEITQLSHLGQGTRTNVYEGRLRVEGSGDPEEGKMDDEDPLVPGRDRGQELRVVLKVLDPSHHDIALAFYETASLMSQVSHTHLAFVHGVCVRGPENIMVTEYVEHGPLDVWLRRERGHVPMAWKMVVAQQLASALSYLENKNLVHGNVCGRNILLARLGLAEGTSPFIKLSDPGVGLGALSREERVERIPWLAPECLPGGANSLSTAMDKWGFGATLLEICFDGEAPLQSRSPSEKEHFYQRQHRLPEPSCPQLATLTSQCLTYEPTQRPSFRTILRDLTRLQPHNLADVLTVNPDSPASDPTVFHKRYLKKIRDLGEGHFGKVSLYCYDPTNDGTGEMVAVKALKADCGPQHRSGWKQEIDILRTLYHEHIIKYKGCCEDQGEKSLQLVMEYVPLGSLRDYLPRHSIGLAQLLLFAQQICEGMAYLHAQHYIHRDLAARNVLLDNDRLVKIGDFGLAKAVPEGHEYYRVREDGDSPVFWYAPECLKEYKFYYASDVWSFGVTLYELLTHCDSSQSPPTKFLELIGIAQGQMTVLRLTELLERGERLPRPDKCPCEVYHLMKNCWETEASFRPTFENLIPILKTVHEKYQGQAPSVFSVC

Tmax (GI Exposure PK in Mice; circulating plasma (cardiac puncture), Circulating plasma): 4 h
Cmax (GI Exposure PK in Mice; circulating plasma (cardiac puncture), Circulating plasma, two of three subjects, third BLQ): 9.2 ng/mL
AUC (GI Exposure PK in Mice; [1]): 17.2 ng·h/mL
Cmax (GI Exposure PK in Mice; [1]): 11.3 ng/mL
Tmax (GI Exposure PK in Mice; [1]): 0.5 h
AUC (GI Exposure PK in Mice; Colon): 6820 ng·h/mL
Cmax (GI Exposure PK in Mice; Colon): 1290 ng/g
Tmax (GI Exposure PK in Mice; Colon): 4 h
AUC (GI Exposure PK in Mice; Duodenum): 4660 ng·h/mL
Cmax (GI Exposure PK in Mice; Duodenum): 2880 ng/g
Tmax (GI Exposure PK in Mice; Duodenum): 0.5 h
AUC (GI Exposure PK in Mice; Ileum): 82500 ng·h/mL
Cmax (GI Exposure PK in Mice; Ileum): 43800 ng/g
Tmax (GI Exposure PK in Mice; Ileum): 2 h
AUC (GI Exposure PK in Mice; Jejunum): 57400 ng·h/mL
Cmax (GI Exposure PK in Mice; Jejunum): 37000 ng/g
Tmax (GI Exposure PK in Mice; Jejunum): 0.5 h
IC50 (Tyk-2): ≤ 10 nM
IC50 (JAK2): ≤ 10 nM
SMILES: CNC(=O)c1coc(-c2cnc3[nH]ccc3c2N[C@@H]2C[C@H](C)CN(C(=O)CC#N)C2)n1 [Example 31, 2-(4-(((3R,5S)-1-(2-cyanoacetyl)-5-methylpiperidin-3-yl)amino)-1H-pyrrolo[2,3-b]pyridin-5-yl)-N-methyloxazole-4-carboxamide]
